What was measured:
Format in all cases: binding
[1] = biological target: T1, PYL1/HAB1 coreceptor complex (Arabidopsis thaliana, UniProt Q8VZS8); test: radioligand competition (SPA, 3H-ABA); settings: 450 nM 3H-ABA, 10 µM HAB1, MOPS pH 7.4, room temperature; curve only in figure
T1 construct: H6GST-PYL1 on SPA beads plus HAB1 (172-511), both from E. coli; 1:1 complex; with Protein phosphatase 2C 16
T1 sequence (Q8VZS8 36-211): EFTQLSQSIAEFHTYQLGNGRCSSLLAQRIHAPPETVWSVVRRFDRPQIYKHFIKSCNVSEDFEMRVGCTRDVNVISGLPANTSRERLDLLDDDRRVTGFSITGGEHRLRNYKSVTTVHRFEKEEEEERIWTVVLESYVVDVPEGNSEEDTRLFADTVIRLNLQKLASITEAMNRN
T1 sequence (Q9CAJ0 172-511 partner): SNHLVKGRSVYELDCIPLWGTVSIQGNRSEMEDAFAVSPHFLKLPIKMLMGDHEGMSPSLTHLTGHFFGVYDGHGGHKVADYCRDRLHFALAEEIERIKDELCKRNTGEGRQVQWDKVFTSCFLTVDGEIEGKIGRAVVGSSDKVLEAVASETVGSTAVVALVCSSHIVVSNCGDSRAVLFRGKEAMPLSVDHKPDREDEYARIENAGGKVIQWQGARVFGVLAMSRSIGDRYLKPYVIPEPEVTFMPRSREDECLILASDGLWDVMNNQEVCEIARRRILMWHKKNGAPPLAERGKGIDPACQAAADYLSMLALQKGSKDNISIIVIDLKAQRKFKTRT

PYL2 = biological target: T2, PYL2 (Arabidopsis thaliana, UniProt O80992); test: thermal shift (SYPRO Orange); settings: 500 µM pyrabactin, no PP2C; apo Tm not derivable
T2 construct: residues 14-188, recombinant from E. coli, receptor alone without PP2C; dimeric
T2 sequence (O80992 14-188): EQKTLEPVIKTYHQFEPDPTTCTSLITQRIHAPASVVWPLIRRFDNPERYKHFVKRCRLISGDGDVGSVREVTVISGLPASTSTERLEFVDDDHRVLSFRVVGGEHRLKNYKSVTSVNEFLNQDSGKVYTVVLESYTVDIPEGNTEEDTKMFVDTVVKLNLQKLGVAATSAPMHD

SnRK2.6 = biological target: T3, SnRK2.6 (Arabidopsis thaliana, UniProt Q940H6); test: thermal shift (SYPRO Orange); settings: 50 µM compound, 5 µM kinase
T3 construct: gene SRK2E; full length, recombinant from E. coli; untagged in TSA, H6GST fusion in kinase assay
T3 sequence (Q940H6 1-362): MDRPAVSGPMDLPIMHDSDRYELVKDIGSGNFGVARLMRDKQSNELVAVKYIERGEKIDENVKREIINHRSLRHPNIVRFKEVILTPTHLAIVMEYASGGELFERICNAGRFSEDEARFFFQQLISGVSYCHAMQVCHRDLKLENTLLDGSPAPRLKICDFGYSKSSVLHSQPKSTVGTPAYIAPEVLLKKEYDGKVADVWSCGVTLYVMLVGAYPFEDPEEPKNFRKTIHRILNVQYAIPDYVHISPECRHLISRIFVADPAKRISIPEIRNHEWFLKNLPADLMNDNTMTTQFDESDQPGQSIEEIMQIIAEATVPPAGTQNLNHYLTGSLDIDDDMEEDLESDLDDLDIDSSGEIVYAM

SnRK2.2 = biological target: T4, SnRK2.2 (Arabidopsis thaliana, UniProt Q39192); test: thermal shift (SYPRO Orange); settings: 50 µM compound
T4 construct: gene SRK2D
T4 sequence (Q39192 1-362): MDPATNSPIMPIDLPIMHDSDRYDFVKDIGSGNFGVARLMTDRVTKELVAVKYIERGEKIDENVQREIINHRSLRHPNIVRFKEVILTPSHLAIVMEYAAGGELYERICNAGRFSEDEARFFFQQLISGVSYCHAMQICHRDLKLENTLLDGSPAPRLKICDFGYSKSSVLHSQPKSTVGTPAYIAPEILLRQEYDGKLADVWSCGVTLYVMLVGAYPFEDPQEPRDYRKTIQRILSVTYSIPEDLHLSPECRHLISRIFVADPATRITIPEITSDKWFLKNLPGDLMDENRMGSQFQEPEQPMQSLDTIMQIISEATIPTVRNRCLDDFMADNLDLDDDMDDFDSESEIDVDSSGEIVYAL

SnRK2.3 = biological target: T5, SnRK2.3 (Arabidopsis thaliana, UniProt Q39193); test: thermal shift (SYPRO Orange); settings: 50 µM compound, 5 µM kinase
T5 construct: gene SRK2I; full length, recombinant from E. coli; untagged and as N-terminal MBP fusion (NAAAEF linker)
T5 sequence (Q39193 1-361): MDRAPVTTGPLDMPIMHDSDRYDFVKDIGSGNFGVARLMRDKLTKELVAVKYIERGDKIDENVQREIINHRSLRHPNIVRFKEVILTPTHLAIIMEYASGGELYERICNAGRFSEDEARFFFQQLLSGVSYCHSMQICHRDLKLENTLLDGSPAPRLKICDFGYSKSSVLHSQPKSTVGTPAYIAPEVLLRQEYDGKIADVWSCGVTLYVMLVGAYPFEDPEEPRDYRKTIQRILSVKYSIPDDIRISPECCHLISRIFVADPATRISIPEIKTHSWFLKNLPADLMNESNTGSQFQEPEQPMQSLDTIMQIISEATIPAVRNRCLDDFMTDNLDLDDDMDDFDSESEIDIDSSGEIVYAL

SMILES | radioligand competition (SPA, 3H-ABA) [1] | thermal shift (SYPRO Orange) (PYL2) | dTm (SnRK2.6) [°C] | dTm (SnRK2.2) [°C] | dTm (SnRK2.3) [°C]
O=S(=O)(NCc1ccccn1)c1ccc(Br)c2ccccc12 [pyrabactin] | Competition of the interactions between ^3H-ABA and the PYL1/HAB1 (A) | suggesting that pyrabactin directly binds PYL2, but with an affinity that is lower |  |  | 
O=C1NC(=O)c2c1c(-c1ccccc1Cl)cc1[nH]c3ccc(O)cc3c21 [Wee1 inhibitor] |  |  | > 3 | > 3 | > 3

Reference: publication PMC3480437, “Abscisic Acid Signaling: Thermal Stability Shift Assays as Tool to Analyze Hormone Perception and Signal Transduction” (PLoS ONE, 2012)
